Results reported in patent US6984400B2, “Method of treating restenosis using bisphosphonate nanoparticles” (Yissum Research Development Company of the Hebrew …, priority 1998, dated 2006).

Key:
[1] = system: RAW 264 cells; experiment: Growth/proliferation of RAW 264 cells in vitro; type: cell-based, murine; conditions: FIG. 6; 48 hours after treatment; proliferation in buffer = 100%
Method: The effect of ISA on the growth of RAW 264 cells was determined. RAW 264 cells, which are derived from the murine macrophage cell lines, were plated at 2×10^4 cells per well in 24-well plates and allowed to grow for approximately 24 hours in DMEM. The cells were then treated with various compositions of the ISA drug, specifically, free ISA, the ISA−Ca^+2 salt, and ISA encapsulated in a nanoparticle (“ISA NP”). As discussed supra, the ISA NP contains Ca^+2 to lower the solubility of the bisphosphonate and increase its entrapment efficiency. For comparison purposes, the RAW 264 cells were also treated with blank NP, i.e., nanoparticles with no drug embedded therein. The cells were then analyzed 48 hours after treatment. Analysis included cell counting by Coulter counter and cell viability by tryphan blue exclusion assay.
The effect of ISA compositions on the growth of RAW 264 cells in vitro is illustrated in FIG. 6. The cell proliferation in buffer only was termed as 100%. The data represented is the mean with a ±SD (6≦N≦27).
The following formulations were evaluated: Ca^+2-ISA salt, Ca^+2-ISA salt+PVA, and Ca^+2-ISA adsorbed on the surface of a blank NP. The cell proliferation in the buffer only was termed as 100%. N.B., a lower column represents higher potency.

[2] = system: neointimal formation in balloon-injured rat carotid artery; experiment: Rat carotid catheter (balloon) injury model of restenosis; type: in vivo; conditions: Example 2; 1.5 and 15 mg/kg day -1 and/or day +6; 14 days post injury; FIG. 4
Method: Animals were obtained and housed in the animal facilities of the Faculty of Medicine, The Hebrew University of Jerusalem, conforming to the standards for care and use of laboratory animals of the Hebrew University of Jerusalem. Male rats of Sabra strain weighing 350-420 g were used. The animals were fed standard laboratory chow and tap water ad libitum. All in vivo experiments were conducted under general anaesthesia achieved with 80 mg/kg ketamine and 5 mg/kg xylazine administered IP.
The distal left common and external carotid arteries were exposed through a midline incision in the neck. […]
The slides were examined microscopically by an investigator blinded to the type of the experimental group. Six to eight sections in each slide were evaluated by computerized morphometric analysis and the averaged section data were further used as a representative of a whole slide for comparisons between groups. The residual lumen, the area bounded by the internal elastic lamina (original lumen), and the area circumscribed by the external elastic lamina (“total arterial area”) were measured directly. The degree of neointimal thickening was expressed as the ratio between the area of the neointimal and the original lumen (% stenosis), and as the ratio between the neointimal area to the area of the media (N/M). […]

Nc1nccc[n+]1CC(P(=O)([O-])O)P(=O)(O)O (centres unmarked) [free ISA, 2-(2-aminopyrimidinio) ethylidene-1,1-bisphosphonic acid betaine]
growth of RAW 264 cells [1]: only a minor effect

O=P(O)(O)C(Cl)(Cl)P(=O)(O)O [free clodronate in solution, (dichloromethylene) diphosphonic acid]
mean neointimal formation [2]: marked neointimal formation
